In test [1] the test system is rats rendered neuropathic via the SNI Model. In words: Analgesic effect in spared nerve injury (SNI) model of neuropathic pain. The class given is in vivo, Sprague-Dawley rats. The conditions noted are these: mean ± standard error of the mean. The procedure:
(§1) Adult, male Sprague-Dawley rats were obtained from Charles River Laboratories (Wilmington, Mass.) and housed under standard conditions at the Institut Armand-Frappier (Laval, QC). Food and water were provided to experimental animals ad libitum, and rats weighed 175-200 grams at the time of assessment.
(§2) Compounds were prepared for intraperitoneal administration by dissolving them in a vehicle of hydroxypropyl methylcellulose (Sigma, St-Louis, Mo.); total volume of solution administered to rats was 10 ml/kg.
Neuropathic pain was induced in rats via spared nerve injury (SNI) of the left sciatic nerve in accordance with the procedure described by Decosterd & Woolf (Pain 2000; 87(2):149-58). Briefly, under isoflurane anesthesia, the sciatic nerve was exposed by dissection at the level of lower thigh, and a lesion of two of the three terminal branches of the nerve (tibial and common peroneal nerves) were performed leaving the remaining sural nerve intact. The incision was closed-up using simple suturing, and the rats allowed to recover.
(§3) After approximately two weeks, a stable allodynia to blunt mechanical stimuli was identified in the hind paw ipsilateral to the SNI or CCI, manifested as a reduction of 50% withdrawal threshold, and identified using the Von Frey technique, as described by Chaplan et al. (J. Neurosci. Methods 1994; 53(1):55-63), or the Hargreaves method, as described by Hargreaves et al. (Pain 1988; 32(1):77-88). Rats were considered to be fully neuropathic upon displaying a 50% withdrawal threshold of ≦3.5 grams consistently over the course of 72 hours.
(§4) Compounds were administered to neuropathic rats via acute local delivery in the intraperitoneal space or by oral gavage.

The test system of test [2] is rats rendered neuropathic via the CCI model. In words: Analgesic effect in chronic constriction injury (CCI) model of neuropathic pain. The conditions noted are these: mean ± standard error of the mean. The class given is in vivo, Sprague-Dawley rats. As to the method:
as §1, §2
Alternatively, neuropathic pain was induced in rats via chronic constriction injury (CCI) of the left sciatic nerve with the procedure described by Bennett & Xie (Pain 1988; 33(1):87-107). Briefly, under isoflurane anaesthesia, the sciatic nerve was exposed by dissection at the level of the lower thigh and four loose ligatures (USP 4/0, Braun Melsaugen, FRG) were implanted around the nerve—with due attention not to interrupt the epineural circulation. The incision was closed-up using simple suturing, and the rats allowed to recover.
as §3, §4

Test [3] has as its system mice subjected to the Minimal Clonic Seizure model. In words: Minimal Clonic Seizure test (psychomotor seizure model of partial epilepsy, 6 Hz). The class given is in vivo. As to conditions: 100 mg/kg intraperitoneally, 32 mA, 3 seconds. As to the method:
Adult mice are pretreated with 100 mg/kg of test compound, acutely administered intraperitoneally. At varying times (15, 30, 60, 120 and 240 minutes post-treatment), animals are challenged with sufficient current (32 mA, 6 Hz, for 3 seconds) delivered through corneal electrodes to elicit a psychomotor seizure. Untreated mice will display seizures characterized by a minimal clonic phase followed by stereotyped, automatistic behaviors similar to the aura of human patients with partial seizures. Animals not displaying this behavior are considered protected (Barton et al., Epilepsy Res. 2001; 47(3):217-27). Results are expressed as the number of animal protected out of the number of animal tested over time.

For the compound `Cc1cc(O)nc(SCc2c(Cl)ccnc2Cl)n1` [2-{[(2,4-dichloropyridin-3-yl)methyl]sulfanyl}-6-methylpyrimidin-4-ol], the “Peak 50% withdrawal threshold” value in test [1] amounted to 7.74 ± 2.13 g.

On to `CCc1ncccc1CSc1nc(C)cc(O)n1` [2-{[(2-ethylpyridin-3-yl)methyl]sulfanyl}-6-methylpyrimidin-4-ol], for which the “Peak paw withdrawal latency” value in test [2] is 10.46 ± 1.16 s.

Regarding `Oc1cc(C(F)(F)F)nc(SCc2c(Cl)cncc2Cl)n1` [2-{[(3,5-dichloropyridin-4-yl)methyl]sulfanyl}-6-(trifluoromethyl)pyrimidin-4-ol], the “Peak 50% withdrawal threshold” value in test [1] came out at 5.77 ± 1.01 g. Besides, the “Peak paw withdrawal latency” value in test [2] came to 11.7 ± 1.43 s.

In the case of `Cc1cc(O)nc(SCc2c(Cl)cncc2Cl)n1` [2-{[(3,5-dichloropyridin-4-yl)methyl]sulfanyl}-6-methylpyrimidin-4-ol], the “Peak 50% withdrawal threshold” value in test [1] was determined as 9.13 ± 1.60 g. In addition, the “Peak paw withdrawal latency” value in test [2] is reported as 14.49 ± 1.24 s. In addition, the “Protected Animals/tested animals” value in test [3] (15 minutes post-treatment) is listed as 3/4; in test [3] (30 minutes post-treatment), 3/4; in test [3] (60 minutes post-treatment) it was 3/4; in test [3] (120 minutes post-treatment) it was 1/4; in test [3] (240 minutes post-treatment) it was 0/4.

On to `CCc1cncc(CC)c1CSc1nc(O)cc(C(F)(F)F)n1` [2-{[(3,5-diethylpyridin-4-yl)methyl]sulfanyl}-6-(trifluoromethyl)pyrimidin-4-ol], for which the “Peak 50% withdrawal threshold” value in test [1] is 6.04 ± 1.17 g.

In the case of `CCc1cncc(Cl)c1CSc1nc(C)cc(O)n1` [2-{[(3-chloro-5-ethylpyridin-4-yl)methyl]sulfanyl}-6-methylpyrimidin-4-ol], the “Peak 50% withdrawal threshold” value in test [1] is on record as 8.73 ± 1.75 g.

On to `Cc1cc(O)nc(SCc2nn(C)cc2Cl)n1` [2-{[(4-chloro-1-methyl-1H-pyrazol-3-yl)methyl]sulfanyl}-6-methylpyrimidin-4-ol], for which, in test [2], the “Peak paw withdrawal latency” value was found to be 11.98 ± 1.71 s.

Consider `Cc1cc(O)nc(SCc2c(Cl)ccc(Cl)c2Cl)n1` [6-methyl-2-{[(2,3,6-trichlorophenyl)methyl]sulfanyl}pyrimidin-4-ol], for which the “Peak 50% withdrawal threshold” value in test [1] was found to be 6.24 ± 1.48 g. For the same compound, the “Protected Animals/tested animals” value is given as 1/4 in test [3] (15 minutes post-treatment); 3/4 in test [3] (30 minutes post-treatment); 2/4 in test [3] (60 minutes post-treatment); 1/4 in test [3] (120 minutes post-treatment); 0/4 in test [3] (240 minutes post-treatment).

Turning to `CCc1ncsc1CSc1nc(O)cc(C(F)(F)F)n1` [Example 164, 2-{[(4-ethyl-1,3-thiazol-5-yl)methyl]sulfanyl}-6-(trifluoromethyl)pyrimidin-4-ol], in test [2], the “Peak paw withdrawal latency” value was 10.45 ± 0.47 s.

The values above are taken from patent US9040538B2, “Pyrimidines as novel therapeutic agents” (Universite Laval, priority 2009, dated 2015).
